The data set relates to rodent carcinogenicity bioassays, tumor incidence. The data set is described as follows: CCRIS carcinogenicity studies. Summed up: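 Archive of carcinogenicity, mutagenicity, tumor promotion and tumor inhibition results drawn from journals, NCI reports and other sources, expert-reviewed; covers 1985-2011 and is no longer updated.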

The source made the active and inactive calls. No rule for the calls is given here.

Our source for the carcinogen call values is PubChem BioAssay AID1259411 (Chemical Carcinogenesis Research Information System (CCRIS), 2018).

With `Oc1ccc(Cl)cc1Cc1ccccc1`, the carcinogen call (Species: MOUSE, Strain/Sex: B6C3F1/FEMALE, Route: GAVAGE, Dose: 0, 120, 240, 480 MG/KG BW IN CORN OIL 5 D/WK FOR 103 WK (STUDY DURATION: 2 YR), Dose: 0, 120, 240, 480 MG/KG BW IN CORN OIL 5 D/WK FOR 103 WK (STUDY DURATION: 2 YR)) was “inactive; negative”; the carcinogen call (Species: MOUSE, Strain/Sex: B6C3F1/MALE, Route: GAVAGE, Dose: 0, 120, 240, 480 MG/KG BW IN CORN OIL 5 D/WK FOR 103 WK (STUDY DURATION: 2 YR), Dose: 0, 120, 240, 480 MG/KG BW IN CORN OIL 5 D/WK FOR 103 WK (STUDY DURATION: 2 YR), Tumor Site: Type of Lesion: KIDNEY (RENAL TUBULE): ADENOMA, ADENOMA OR CARCINOMA) is “active; positive”; the carcinogen call (Species: MOUSE, Strain/Sex: CD-1/FEMALE, Route: DERMAL, Dose: 10 MG IN ACETONE ONCE FOLLOWED BY 0.1, 1, 3 MG 3/WK FOR 51 WK (STUDY DURATION: 52 WK), Dose: 10 MG IN ACETONE ONCE FOLLOWED BY 0.1, 1, 3 MG 3/WK FOR 51 WK (STUDY DURATION: 52 WK)) is “inactive; negative”; the carcinogen call (Species: MOUSE, Strain/Sex: CD-1/MALE, Route: DERMAL, Dose: 10 MG IN ACETONE ONCE FOLLOWED BY 0.1, 1, 3 MG 3/WK FOR 51 WK (STUDY DURATION: 52 WK), Dose: 10 MG IN ACETONE ONCE FOLLOWED BY 0.1, 1, 3 MG 3/WK FOR 51 WK (STUDY DURATION: 52 WK)) was “inactive; negative”; the carcinogen call (Species: RAT, Strain/Sex: F344/FEMALE, Route: GAVAGE, Dose: 0, 30, 60, 120 MG/KG BW IN CORN OIL 5 D/WK FOR 103 WK (STUDY DURATION: 105 WK), Dose: 0, 30, 60, 120 MG/KG BW IN CORN OIL 5 D/WK FOR 103 WK (STUDY DURATION: 105 WK), Tumor Site: Type of Lesion: KIDNEY (TRANSITIONAL CELL): CARCINOMA) is “equivocal”; the carcinogen call (Species: RAT, Strain/Sex: F344/MALE, Route: GAVAGE, Dose: 0, 30, 60, 120 MG/KG BW IN CORN OIL 5 D/WK FOR 103 WK (STUDY DURATION: 2 YR), Dose: 0, 30, 60, 120 MG/KG BW IN CORN OIL 5 D/WK FOR 103 WK (STUDY DURATION: 2 YR)) is “inactive; negative”.
On to `COc1ccc(N)cc1N`, for which the carcinogen call (Species: MOUSE, Strain/Sex: B6C3F1/FEMALE, Route: ORAL, Dose: 0, 0.12, 0.24% IN DIET FOR 78 WK (STUDY DURATION: 96-97 WK), Dose: 0, 0.12, 0.24% IN DIET FOR 78 WK (STUDY DURATION: 96-97 WK), Tumor Site: Type of Lesion: THYROID GLAND: FOLLICULAR CELL ADENOMA OR CARCINOMA) was “active; positive”; the carcinogen call (Species: MOUSE, Strain/Sex: B6C3F1/MALE, Route: ORAL, Dose: 0, 0.12, 0.24% IN DIET FOR 78 WK (STUDY DURATION: 96-97 WK), Dose: 0, 0.12, 0.24% IN DIET FOR 78 WK (STUDY DURATION: 96-97 WK), Tumor Site: Type of Lesion: THYROID GLAND: FOLLICULAR CELL ADENOMA) is “active; positive”; the carcinogen call (Species: RAT, Strain/Sex: F344/FEMALE, Route: ORAL, Dose: 0, 0.12, 0.5% TWA, IN DIET FOR 78 WK (STUDY DURATION: 107-110 WK), Dose: 0, 0.12, 0.5% TWA, IN DIET FOR 78 WK (STUDY DURATION: 107-110 WK), Tumor Site: Type of Lesion: THYROID GLAND: ADENOCARCINOMA (NOS) OR FOLLICULAR CELL CARCINOMA OR PAPILLARY CYSTADENOCARCINOMA (NOS), EAR (ZYMBAL GLAN) was “active; positive”; the carcinogen call (Species: RAT, Strain/Sex: F344/MALE, Route: ORAL, Dose: 0, 0.12, 0.5% TWA, IN DIET FOR 78 WK (STUDY DURATION: 107-109 WK), Dose: 0, 0.12, 0.5% TWA, IN DIET FOR 78 WK (STUDY DURATION: 107-109 WK), Tumor Site: Type of Lesion: THYROID GLAND: C CELL ADENOMA OR CARCINOMA, ADENOCARCINOMA (NOS), ADENOCARCINOMA (NOS) OR PAPILLARY ADENOCARCINOMA OR FO) is “active; positive”.
As to `Cc1cc(=O)n(-c2ccccc2)n1C`, the carcinogen call (Species: RAT, Strain/Sex: SPRAGUE-DAWLEY/MALE, Route: ORAL, Dose: 0, 0.535% IN DIET FOR 117 WK, Tumor Site: Type of Lesion: KIDNEY) is “active; positive”.
As to `CNNCc1ccc(C(=O)NC(C)C)cc1`, the carcinogen call (Species: MOUSE, Strain/Sex: B6C3F1/FEMALE, Route: INTRAPERITONEAL, Dose: 0, 6, 12 MG/KG IN BUFFERED SALINE 3/WK FOR 52 WK (STUDY DURATION: 67-85 WK), Dose: 0, 6, 12 MG/KG IN BUFFERED SALINE 3/WK FOR 52 WK (STUDY DURATION: 67-85 WK), Tumor Site: Type of Lesion: LUNG: ALVEOLAR/BRONCHIOLAR ADENOMA, HEMATOPOIETIC SYSTEM (LEUKEMIA), LYMPHATIC SYSTEM: LYMPHOMA, UTERUS: ADENOCARCINOMA, Tumor Site: Type of Lesion: LUNG: ALVEOLAR/BRONCHIOLAR ADENOMA, HEMATOPOIETIC SYSTEM (LEUKEMIA), LYMPHATIC SYSTEM: LYMPHOMA, UTERUS: ADENOCARCINOMA) is “active; positive”; the carcinogen call (Species: MOUSE, Strain/Sex: B6C3F1/MALE, Route: INTRAPERITONEAL, Dose: 0, 6, 12 MG/KG IN BUFFERED SALINE 3/WK FOR 52 WK (STUDY DURATION: 67-85 WK), Dose: 0, 6, 12 MG/KG IN BUFFERED SALINE 3/WK FOR 52 WK (STUDY DURATION: 67-85 WK), Tumor Site: Type of Lesion: LUNG: ALVEOLAR/BRONCHIOLAR ADENOMA OR CARCINOMA, HEMATOPOIETIC SYSTEM (LEUKEMIA), LYMPHATIC SYSTEM: LYMPHOMA, BRAIN: OLF, Tumor Site: Type of Lesion: LUNG: ALVEOLAR/BRONCHIOLAR ADENOMA OR CARCINOMA, HEMATOPOIETIC SYSTEM (LEUKEMIA), LYMPHATIC SYSTEM: LYMPHOMA, BRAIN: OLF) was “active; positive”; the carcinogen call (Species: RAT, Strain/Sex: BR46/MALE, Route: INTRAVENOUS, Dose: 24 MG/KG 1/WK FOR 52 WK, Tumor Site: Type of Lesion: MULTIPLE SITES: BENIGN TUMOR OR MALIGNANT TUMOR) is “active; positive”; the carcinogen call (Species: RAT, Strain/Sex: SPRAGUE-DAWLEY/FEMALE, Route: INTRAPERITONEAL, Dose: 0, 15, 30 MG/KG IN BUFFERED SALINE 3/WK FOR 26 WK (STUDY DURATION: 31-86 WK), Dose: 0, 15, 30 MG/KG IN BUFFERED SALINE 3/WK FOR 26 WK (STUDY DURATION: 31-86 WK), Tumor Site: Type of Lesion: LYMPHATIC SYSTEM: MALIGNANT LYMPHOMA, MAMMARY GLAND: ADENOMA (NOS) OR ADENOCARCINOMA (NOS), BRAIN (CEREBRUM): OLFACTORY, Tumor Site: Type of Lesion: LYMPHATIC SYSTEM: MALIGNANT LYMPHOMA, MAMMARY GLAND: ADENOMA (NOS) OR ADENOCARCINOMA (NOS), BRAIN (CEREBRUM): OLFACTORY) was “active; positive”; the carcinogen call (Species: RAT, Strain/Sex: SPRAGUE-DAWLEY/MALE, Route: INTRAPERITONEAL, Dose: 0, 15, 30 MG/KG IN BUFFERED SALINE 3/WK FOR 26 WK (STUDY DURATION: 43-86 WK), Dose: 0, 15, 30 MG/KG IN BUFFERED SALINE 3/WK FOR 26 WK (STUDY DURATION: 43-86 WK), Tumor Site: Type of Lesion: HEMATOPOIETIC SYSTEM (LEUKEMIA), LYMPHATIC SYSTEM: MALIGNANT LYMPHOMA, MAMMARY GLAND: ADENOMA (NOS) OR ADENOSARCOMA (NOS, Tumor Site: Type of Lesion: HEMATOPOIETIC SYSTEM (LEUKEMIA), LYMPHATIC SYSTEM: MALIGNANT LYMPHOMA, MAMMARY GLAND: ADENOMA (NOS) OR ADENOSARCOMA (NOS) is “active; positive”.
For the molecule `C#CCN1CC(=O)N(COC(=O)C2C(C=C(C)C)C2(C)C)C1=O` (stereo not drawn), the carcinogen call (Species: Mouse, Strain/Sex: Crj:CD-1 (ICR)/Female (51/Group), Route: Oral, Dose: 0, 100, 3500, 7000 ppm of 92.9% imiprothrin in diet for 78 wk, study duration 78 wk, Dose: 0, 100, 3500, 7000 ppm of 92.9% imiprothrin in diet for 78 wk, study duration 78 wk) was “inactive; negative”; the carcinogen call (Species: Mouse, Strain/Sex: Crj:CD-1 (ICR)/Male (51/Group), Route: Oral, Dose: 0, 100, 3500, 7000 ppm of 92.9% imiprothrin in diet for 78 wk, study duration 78 wk, Dose: 0, 100, 3500, 7000 ppm of 92.9% imiprothrin in diet for 78 wk, study duration 78 wk) was “inactive; negative”; the carcinogen call (Species: Rat, Strain/Sex: Sprague-Dawley/Female (50/Group), Route: Oral, Dose: 0, 50, 250, 2500, 5000 ppm of 92.9% imiprothrin in diet for 104 wk, study duration 104 wk, Dose: 0, 50, 250, 2500, 5000 ppm of 92.9% imiprothrin in diet for 104 wk, study duration 104 wk) was “inactive; negative”; the carcinogen call (Species: Rat, Strain/Sex: Sprague-Dawley/Male (50/Group), Route: Oral, Dose: 0, 50, 250, 2500, 5000 ppm of 92.9% imiprothrin in diet for 104 wk, study duration 104 wk, Dose: 0, 50, 250, 2500, 5000 ppm of 92.9% imiprothrin in diet for 104 wk, study duration 104 wk) was “inactive; negative”.
On to `O=C1NS(=O)(=O)c2ccccc21`, for which the carcinogen call was “inactive; negative” (Species: MONKEY, Strain/Sex: AFRICAN GREEN, RHESUS, CYNOMOLGUS, HYBRID/MALE, FEMALE, Route: ORAL, Dose: 0, 25 MG/KG BW IN FOOD 5 D/WK FOR DURATION OF STUDY (STUDY DURATION: 24 YR)); “inactive; negative” (Species: RAT, Strain/Sex: ANALBUMINEMIC/MALE, Route: ORAL, Dose: 0, 5% IN DIET FOR 80 WK (STUDY DURATION: 80 WK)); “inactive; negative” (Species: RAT, Strain/Sex: SPRAGUE-DAWLEY/MALE, Route: ORAL, Dose: 0, 5% IN DIET FOR 80 WK (STUDY DURATION: 80 WK)).
